Among the test systems are HT29 colon; SN12C renal; OVCAR-4 ovarian; T-47D breast; SNB-75 CNS; A498 renal; HS 578T breast; CAKI-1 renal; COLO 205 colon; SR leukemia.
Holding throughout (experiment): NCI-60 cell line screen, 48 h

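Exposure lasted 48 hours, with cells grown in 96-well plates and compounds tested at five concentrations. GI50 marks 50% less growth. At the TGI there is no net growth.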

As to `C[C@H](C/C=C/C(C)(C)O)[C@H]1CC[C@@]2(C)[C@@H]3CC[C@H]4C(C)(C)[C@@H](O)CC[C@@]45C[C@@]35CC[C@]12C`, the TGI with HT29 colon is over 100 µM; in the test with SN12C renal, 27.9 µM; in the test with OVCAR-4 ovarian, 43.6 µM; in the test with T-47D breast, 49.7 µM; with SNB-75 CNS it was 52.5 µM; with A498 renal, 40.8 µM. In the test on HS 578T breast, this molecule returned a TGI of 27.8 µM.
With `CCOC(=O)C1=C(C)N(c2ccc(OC)cc2)C2(O)C=CC(=O)C3=C(O)c4ccccc4C(=O)C312` (stereo unspecified), the TGI in the test on CAKI-1 renal was determined as 26.5 µM; in the test with HT29 colon, 32.7 µM; in the test with SN12C renal it was 30.2 µM; in the test with OVCAR-4 ovarian, 10.9 µM; with T-47D breast, 32.7 µM; with COLO 205 colon it was 24 µM. The TGI with A498 renal stood at 27 µM; in the test on HS 578T breast, 33.5 µM.
As for `O=C1Nc2ccccc2Nc2ccncc21`, the TGI in the test on CAKI-1 renal was over 100 µM; with HT29 colon it was over 100 µM; in the test with SN12C renal, over 31.6 µM; with OVCAR-4 ovarian it was over 100 µM; with SNB-75 CNS, over 100 µM; in the test on COLO 205 colon it was over 100 µM. For the same molecule, the TGI in the test with A498 renal was over 100 µM.
For the molecule `O=C(NC(=S)NC(=O)c1cc(O)c(O)c(O)c1)c1cc(O)c(O)c(O)c1`, the TGI is 44.3 µM with CAKI-1 renal; 65.5 µM in the test with HT29 colon; 53.7 µM in the test with SN12C renal; 46.1 µM with OVCAR-4 ovarian; over 100 µM with SR leukemia; 46.7 µM in the test on COLO 205 colon. This molecule also gave a TGI with A498 renal of over 100 µM.
Take `Cc1nc2ccccc2c(/C=C/c2ccc(Cl)cc2)c1C(=O)/C=C/c1ccc(Cl)cc1`: the results for the GI50 in the test on HT29 colon, in the test on SR leukemia and in the test with HS 578T breast were 0.739 µM, 0.609 µM and 2.06 µM, respectively. Further, the figures for the TGI in the test on HT29 colon, with SR leukemia and in the test with HS 578T breast were over 100 µM, over 100 µM and 5.97 µM, respectively.
Consider `CN(C)c1cc[n+](-c2nc(/N=C(\[O-])C(F)(F)F)nc3c2ncn3C2CC(O)C(CO)O2)cc1` (stereo unspecified), for which the TGI in the test on HT29 colon, in the test with SN12C renal, in the test with OVCAR-4 ovarian, with T-47D breast, in the test with SNB-75 CNS and in the test with COLO 205 colon was over 100 µM in each case. Further, the TGI with A498 renal and in the test with HS 578T breast was over 100 µM throughout.
As to `Cc1ccccc1NC(=O)Cc1csc2[n+]1C(=O)/C(=C/c1ccc([N+](=O)[O-])cc1)S2`, the TGI is 61.8 µM in the test on CAKI-1 renal; over 100 µM in the test with HT29 colon; over 100 µM in the test on SN12C renal; 35.3 µM in the test with OVCAR-4 ovarian; over 100 µM in the test on T-47D breast; 63.1 µM in the test with SNB-75 CNS. Moreover, the TGI with COLO 205 colon was over 100 µM.
As to `COc1cc(-c2ccccc2N)c2cccnc2c1OC`, the TGI in the test on CAKI-1 renal stood at 10.2 µM; in the test on HT29 colon, 16.3 µM; in the test on SN12C renal it was 17.3 µM; in the test with OVCAR-4 ovarian, 19.6 µM; with T-47D breast, 13.7 µM; in the test with SR leukemia, 7.25 µM. For the same molecule, the TGI with COLO 205 colon came to 22.1 µM; with A498 renal it was 27.2 µM; in the test with HS 578T breast, 11.9 µM.
On to `CC(C)C1N(C)c2ccc(Cl)cc2[C@H]2c3ccccc3CCN12` (stereo partly specified), for which the TGI is 90.7 µM in the test on HT29 colon; over 100 µM in the test with SN12C renal; over 100 µM in the test with OVCAR-4 ovarian; over 100 µM with SR leukemia; over 100 µM in the test with SNB-75 CNS; over 100 µM with COLO 205 colon. The TGI with A498 renal was over 100 µM; in the test with HS 578T breast, 82.1 µM.
As to `COc1ccc(-n2sc3ncccc3c2=O)cc1`, the TGI with HT29 colon was 43 µM; in the test on SN12C renal, 91.3 µM; in the test on OVCAR-4 ovarian, over 100 µM; with T-47D breast it was 44.1 µM; in the test on SR leukemia it was 55.1 µM; with SNB-75 CNS, 51 µM. For the same molecule, the TGI with COLO 205 colon came to 35 µM; in the test with HS 578T breast, 62.8 µM.
Turning to `O=C(OCC(Cl)(Cl)Cl)O[C@@H]1CCCC1(c1ccccc1)c1ccccc1`, the TGI with CAKI-1 renal, in the test on HT29 colon, in the test with SN12C renal, in the test with OVCAR-4 ovarian, in the test on T-47D breast and with SR leukemia was over 100 µM each time. Besides, the TGI with SNB-75 CNS and in the test on COLO 205 colon was over 100 µM in each case.
Turning to `O=C(CCc1ccccc1)On1c(-c2ccccc2)nc2ccccc2c1=S`, the TGI with CAKI-1 renal, in the test on HT29 colon, in the test with SN12C renal, in the test with OVCAR-4 ovarian, in the test on T-47D breast and in the test on SNB-75 CNS was over 100 µM each time. For the same molecule, the TGI with COLO 205 colon, in the test with A498 renal and in the test on HS 578T breast was over 100 µM throughout.
Take `COc1cccc(/C=N/[N-]C(N)=O)c1[O-].[Cu+2].[OH3+].c1ccc(-c2ccccn2)nc1`: the TGI with CAKI-1 renal is 83.7 µM; in the test with HT29 colon, over 100 µM; in the test on SN12C renal, over 96.8 µM; with OVCAR-4 ovarian, 33.1 µM; with SR leukemia, over 100 µM; in the test on SNB-75 CNS it was 33.9 µM. The results for the TGI with COLO 205 colon and in the test on A498 renal were 55.4 µM and 35.8 µM, respectively.
`COc1ccc(C(C2=C(O)COC2=O)c2cc3c(cc2O)OCO3)cc1OC` (stereo unspecified): the TGI with CAKI-1 renal, in the test on HT29 colon, in the test with SN12C renal, with OVCAR-4 ovarian, in the test with SR leukemia and in the test with SNB-75 CNS was over 100 µM in each case. Moreover, the TGI with COLO 205 colon, in the test on A498 renal and in the test with HS 578T breast was over 100 µM throughout.
Take `Cc1nc2c(=S)n(C)ncc2[nH]1`: the TGI in the test with CAKI-1 renal, in the test on HT29 colon, in the test on SN12C renal, with OVCAR-4 ovarian, in the test with T-47D breast and in the test on SNB-75 CNS was over 100 µM each time. Further, the TGI in the test with COLO 205 colon and with A498 renal was over 100 µM each time.
Regarding `CC(=O)N1CCn2c1nc1cc(Cl)ccc12`, the TGI with CAKI-1 renal is over 100 µM; in the test on HT29 colon, over 100 µM; in the test with SN12C renal it was over 100 µM; in the test with OVCAR-4 ovarian, over 100 µM; in the test with T-47D breast it was 51.4 µM; in the test with SR leukemia, over 100 µM. Moreover, the TGI in the test on COLO 205 colon, in the test with A498 renal and in the test on HS 578T breast was over 100 µM throughout.

The values are drawn from PubChem BioAssay (NCI).
